The record followed here is patent US11008572B2, “Methods and compositions for modulating splicing” (SKYHAWK THERAPEUTICS, INC., priority 2017, dated 2021).

Assay [1] concerns FOXM1^A2 mRNA and FOXM1^BC mRNA. Description: Splicing assay (FOXM1), qPCR of isoform mRNAs. The following applies: for IC50: FoxM1 BC mRNA decrease (exon included). The class given is cell-based. In outline:
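Cells (20,000/well) treated at plating with compound, 8-point 4-fold series from 10 μM, 0.2% DMSO, 24 h at 37° C. Isoform mRNAs quantified by RT-qPCR against plasmid standards, normalized to PPIA and DMSO control; isoform ratio computed per concentration.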

For another assay, the system named is A-673 cells. Description: Cell viability, crystal violet staining. The class given is cell-based. An outline of the steps:
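Readout is absorbance at 570 nm of crystal violet, taken up in 0.1 M sodium citrate in 50% ethanol after staining with 0.5% dye in 25% methanol. Plates held 5×10^3 cells per well, and compounds were added one day after seeding for 72 hours. Data are relative to vehicle, mean±SE.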

The mark [2] stands for this setting: 24 h, 0.1-1000 nM, 24 hours, read-out: Splice IC50 (nM), FoxM1 BC mRNA decrease (exon included).
Setting [3] is: FoxM1 A mRNA increase (exon excluded), 0.1-1000 nM, 24 hours, read-out: Splice EC50 (nM), FoxM1 A mRNA increase (exon excluded).
The mark [4] stands for this setting: Homo sapiens, A673, cell viability, read-out: A-673 IC50 (nM), Cell viability.
The mark [5] stands for this setting: read-out: Splice IC50 (nM) FoxM1 BC mRNA decrease (exon included).
The mark [6] stands for this setting: read-out: Splice EC50 (nM) FoxM1 A mRNA increase (exon excluded).
The mark [7] stands for this setting: Homo sapiens, A673, cell viability, read-out: A-673 IC50 (nM) Cell viability.

Where two headings read alike, the source gives them in different places. Bounds are passed on as bounds.

As for `CN(c1ccc(-c2ccc(-c3nnc(C(F)(F)F)o3)cc2O)nn1)[C@@H]1C[C@H]2CC[C@@H](C1)N2` [compound 232, 2-(6-(((1R,3s,5S)-8-azabicyclo[3.2.1]octan-3-yl)(methyl)amino)pyridazin-3-yl)-5-(5-(trifluoromethyl)-1,3,4-oxadiazol-2-yl)phenol], the values for the IC50 (in assay [1] (setting [2]); with A-673 cells (setting [4])) were 501 to 1000 nM and greater than 1000 nM, respectively. The concentration for a half-maximal effect (EC50) in assay [1] (setting [3]) lay in the range of 101 to 250 nM.

Consider `Cc1cc(-c2ccc(N(C)[C@H]3C[C@]4(C)CC[C@](C)(C3)N4)nn2)c(O)cc1-c1cn[nH]c1` [compound 182, 2-(6-(((1R,3s,5S)-1,5-dimethyl-8-azabicyclo[3.2.1]octan-3-yl)(methyl)amino)pyridazin-3-yl)-4-methyl-5-(1H-pyrazol-4-yl)phenol], for which the figures for the IC50 (in assay [1] (setting [5]); with A-673 cells (setting [7])) were less than 10 nM and 10 to 100 nM, respectively. Moreover, the EC50 in assay [1] (setting [6]) is less than 10 nM.

In the case of `CN(c1cnc(-c2ccc(-c3cn[nH]c3)cc2O)nc1)C1CC(C)(C)NC(C)(C)C1` [compound 134, 2-(5-(methyl(2,2,6,6-tetramethylpiperidin-4-yl)amino)pyrimidin-2-yl)-5-(1H-pyrazol-4-yl)phenol], the IC50 (in assay [1] (setting [5]); with A-673 cells (setting [7])) was greater than 1000 nM in each case. Moreover, the EC50 in assay [1] (setting [6]) is greater than 1000 nM.

As to `CN(c1ccc(-c2ccc(-c3ccn(CF)c(=O)c3)cc2O)nn1)[C@H]1C[C@]2(C)CC[C@](C)(C1)N2` [compound 187, 4-(4-(6-(((1R,3s,5S)-1,5-dimethyl-8-azabicyclo[3.2.1]octan-3-yl)(methyl)amino)pyridazin-3-yl)-3-hydroxyphenyl)-1-(fluoromethyl)pyridin-2(1H)-one], the IC50 in assay [1] (setting [5]) was less than 10 nM; in the assay on A-673 cells (setting [7]) it was 10 to 100 nM. Further, the EC50 in assay [1] (setting [6]) is less than 10 nM.

Take `CN(c1ccc(-c2ccc(-c3cn[nH]c3)cc2O)nn1)[C@H]1C[C@H]2CNC[C@H]2C1` [compound 142, 2-(6-(methyl((3R,5r,6S)-octahydrocyclopenta[c]pyrrol-5-yl)amino)pyridazin-3-yl)-5-(1H-pyrazol-4-yl)phenol]: the IC50 in assay [1] (setting [5]) was 501 to 1000 nM; in the assay with A-673 cells (setting [7]), greater than 1000 nM. Also, the EC50 in assay [1] (setting [6]) was 251 to 500 nM.

For the compound “2-(6-(((1R,3s,5S)-8-azabicyclo[3.2.1]octan-3-yl)oxy)pyridazin-3-yl)-5-(1H-1,2,3-triazol-4-yl)phenol [compound 253]”, in assay [1] (setting [3]), the 50% effective concentration (EC50) lay within 251 to 500 nM. Besides, the IC50 in assay [1] (0.1-1000 nM, 24 hours, read-out: Splice IC50 (nM), FoxM1 BC mRNA decrease (exon included)) was in the range of 251 to 500 nM; in the assay with A-673 cells (cell viability, read-out: A-673 IC50 (nM), Cell viability), 501 to 1000 nM.

Regarding `CN(c1ccc(-c2cc(F)c(-c3ccn(C)c(=O)c3)cc2O)nn1)[C@@H]1C[C@H]2CCC[C@@H](C1)N2` [compound 285, 4-(4-(6-(((1R,3s,5S)-9-azabicyclo[3.3.1]nonan-3-yl)(methyl)amino)pyridazin-3-yl)-2-fluoro-5-hydroxyphenyl)-1-methylpyridin-2(1H)-one], the IC50 (in assay [1] (setting [2]); in the assay with A-673 cells (setting [4])) was less than 10 nM throughout. Besides, in assay [1] (setting [3]), the EC50 is greater than 1000 nM.

Take `CN(c1ccc(-c2ccc(-c3cn[nH]c3)cc2O)nn1)[C@H]1C[C@H]2CC[C@@H](C1)N2` [compound 139, 2-(6-(((1R,3r,5S)-8-azabicyclo[3.2.1]octan-3-yl)(methyl)amino)pyridazin-3-yl)-5-(1H-pyrazol-4-yl)phenol]: the IC50 (in assay [1] (setting [5]); in the assay on A-673 cells (setting [7])) was greater than 1000 nM in each case. In addition, the EC50 in assay [1] (setting [6]) is greater than 1000 nM.

For `Cc1ncc(-c2ccc(-c3ccc(O[C@@H]4C[C@H]5CC[C@@H](C4)N5)nn3)c(O)c2)o1` [compound 255, 2-(6-(((1R,3s,5S)-8-azabicyclo[3.2.1]octan-3-yl)oxy)pyridazin-3-yl)-5-(2-methyloxazol-5-yl)phenol], the IC50 in assay [1] (setting [2]) fell in the range of 101 to 250 nM; in the assay on A-673 cells (setting [4]) it was 501 to 1000 nM. The EC50 in assay [1] (setting [3]) lay within 101 to 250 nM.

Regarding `CN(c1ccc(-c2ccc(-c3cn[nH]c3)cc2O)nn1)[C@@H]1C[C@@H]2C[C@H]1CN2` [compound 147, 2-(6-(((1S,4S,5R)-2-azabicyclo[2.2.1]heptan-5-yl)(methyl)amino)pyridazin-3-yl)-5-(1H-pyrazol-4-yl)phenol], the IC50 in assay [1] (setting [5]) is 251 to 500 nM; in the assay with A-673 cells (setting [7]), greater than 1000 nM. For the same compound, the EC50 in assay [1] (setting [6]) was in the range of 101 to 250 nM.

Take `CNC(=O)c1cc2cc(O)c(-c3ccc(N(C)[C@H]4C[C@]5(C)CC[C@](C)(C4)N5)nn3)cc2o1` [compound 188, 6-(6-(((1R,3s,5S)-1,5-dimethyl-8-azabicyclo[3.2.1]octan-3-yl)(methyl)amino)pyridazin-3-yl)-5-hydroxy-N-methylbenzofuran-2-carboxamide]: the IC50 (in assay [1] (setting [5]); in the assay with A-673 cells (setting [7])) was 10 to 100 nM each time. In assay [1] (setting [6]), the EC50 is less than 10 nM.

`Oc1cc(-c2cn[nH]c2)ccc1-c1ccc(O[C@@H]2C[C@H]3CC[C@@H](C2)N3)nn1` [compound 140, 2-(6-(((1R,3s,5S)-8-azabicyclo[3.2.1]octan-3-yl)oxy)pyridazin-3-yl)-5-(1H-pyrazol-4-yl)phenol]: the figures for the IC50 (in assay [1] (setting [5]); in the assay with A-673 cells (setting [7])) were 10 to 100 nM and 101 to 250 nM, respectively. For the same compound, the EC50 in assay [1] (setting [6]) lay in the range of 10 to 100 nM.

Turning to `CN(c1ccc(-c2ccc(-n3cnc(C(F)(F)F)c3)cc2O)nn1)[C@@H]1C[C@H]2CC[C@@H](C1)N2` [compound 242, 2-(6-(((1R,3s,5S)-8-azabicyclo[3.2.1]octan-3-yl)(methyl)amino)pyridazin-3-yl)-5-(4-(trifluoromethyl)-1H-imidazol-1-yl)phenol], the IC50 was 101 to 250 nM in assay [1] (setting [2]) and 251 to 500 nM in the assay on A-673 cells (setting [4]). In addition, in assay [1] (setting [3]), the EC50 was 10 to 100 nM.

For the compound `CN(c1cnc(-c2ccc(-c3cn[nH]c3)cc2O)cn1)C1CC(C)(C)NC(C)(C)C1` [compound 136, 2-(5-(methyl(2,2,6,6-tetramethylpiperidin-4-yl)amino)pyrazin-2-yl)-5-(1H-pyrazol-4-yl)phenol], the IC50 fell in the range of 251 to 500 nM in assay [1] (setting [5]) and 501 to 1000 nM in the assay with A-673 cells (setting [7]). In addition, the EC50 in assay [1] (setting [6]) was in the range of 101 to 250 nM.

Take `CN(c1ccc(-c2cc3oc(=O)n(C)c3cc2O)nn1)[C@@H]1C[C@H]2CC[C@@H](C1)N2` [compound 164, 6-(6-(((1R,3s,5S)-8-azabicyclo[3.2.1]octan-3-yl)(methyl)amino)pyridazin-3-yl)-5-hydroxy-3-methylbenzo[d]oxazol-2(3H)-one]: the 50% inhibitory concentration (IC50) in assay [1] (setting [5]) was 10 to 100 nM; with A-673 cells (setting [7]), 251 to 500 nM. The EC50 in assay [1] (setting [6]) is 10 to 100 nM.

Take `CN(c1ccc(-c2ccc(-n3cncn3)cc2O)nn1)[C@@H]1C[C@H]2CC[C@@H](C1)N2` [compound 243]: the IC50 (in assay [1] (setting [2]); in the assay on A-673 cells (setting [4])) was 10 to 100 nM each time. Moreover, the EC50 in assay [1] (setting [3]) is less than 10 nM.

Regarding `Cc1cn(-c2ccc(-c3ccc(N(C)[C@@H]4C[C@H]5CC[C@@H](C4)N5)nn3)c(O)c2)nn1` [compound 225, 2-(6-(((1R,3s,5S)-8-azabicyclo[3.2.1]octan-3-yl)(methyl)amino)pyridazin-3-yl)-5-(4-methyl-1H-1,2,3-triazol-1-yl)phenol], the IC50 (in assay [1] (setting [2]); in the assay on A-673 cells (setting [4])) was 10 to 100 nM throughout. Besides, in assay [1] (setting [3]), the EC50 was 10 to 100 nM.

Consider `CN(c1ccc(-c2ccc(-c3ccc(=O)n(C)c3)cc2O)nn1)[C@@H]1C[C@H]2CC[C@@H](C1)N2` [compound 241, 5-(4-(6-(((1R,3s,5S)-8-azabicyclo[3.2.1]octan-3-yl)(methyl)amino)pyridazin-3-yl)-3-hydroxyphenyl)-1-methylpyridin-2(1H)-one], for which the IC50 in assay [1] (setting [2]) was in the range of 10 to 100 nM; in the assay with A-673 cells (setting [4]), 101 to 250 nM. Besides, the EC50 in assay [1] (setting [3]) was less than 10 nM.
